Measurements taken from ChEMBL document CHEMBL3774385, “Small molecule glycoconjugates with anticancer activity” (Eur J Med Chem, 2016).
Activity calls are given as the source filed them. The calls are words filed in the database; no cut-off is given here.

What was measured:
[1] = tested on: HCT-116; assay: Induction of apoptosis in p53 expressing human HCT116 cells assessed as caspase-3/7 activation at IC50 after 30 to 48 hrs by luminescence assay; assay type: functional, cell-based
[2] = tested on: Calf thymus DNA; assay: Binding affinity to calf thymus DNA assessed as hypochromism at 3 to 25 uM after 1.5 hrs by UV-visible spectrophotometry; assay type: nucleic-acid assay; conditions: Bos taurus
[3] = Antiproliferative activity against p53 deficient human HCT116 cells at IC50 after 96 hrs by MTS assay in presence of 20 uM CuCl2; assay type: functional, HCT-116
[4] = tested on: HCT-116; assay: Induction of apoptosis in p53 deficient human HCT116 cells assessed as caspase-3/7 activation at IC50 after 30 to 48 hrs by luminescence assay; assay type: functional, cell-based
[5] = tested on: HCT-116; assay: Induction of reactive oxygen species generation in p53 expressing human HCT116 cells at 2 times IC50 for 24 hrs by inverted fluorescent microscopy; assay type: functional, cell-based
[6] = tested on: HCT-116; assay: Induction of apoptosis in p53 expressing human HCT116 cells assessed as early apoptotic cells at IC50 after 48 hrs by acridine orange/ethidium bromide staining-based epifluorescence microscopy; assay type: functional, cell-based
[7] = tested on: HCT-116; assay: Induction of intracellular reactive oxygen species generation in p53 expressing human HCT116 cells at IC50 after 12 hrs by fluorescence-based plate reader analysis; assay type: functional, cell-based
[8] = tested on: NHDF; assay: Cytotoxicity against human NHDF cells after 96 hrs by MTS assay; assay type: cell-based
[9] = Antiproliferative activity against p53 expressing human HCT116 cells after 96 hrs by MTS assay; assay type: functional, cell-based; conditions: HCT-116, 96 h
[10] = Antiproliferative activity against p53 deficient human HCT116 cells after 96 hrs by MTS assay; assay type: functional, cell-based; conditions: HCT-116, 96 h
[11] = tested on: HCT-116; assay: Decrease in GSH level in p53 expressing human HCT116 cells at IC50 after 12 hrs by luminescence analysis; assay type: functional, cell-based
[12] = tested on: HCT-116; assay: Antiproliferative activity against p53 expressing human HCT116 cells at IC50 after 3 to 96 hrs by MTS assay in presence of 10 to 50 uM glucose; assay type: functional, cell-based
[13] = Binding affinity to Zn2+ assessed as compound-metal complex formation at compound to metal ratio of 1:0, 1:1, 2:1, 3:1, 4:1 and 5:1 after 30 mins by UV-visible spectrophotometry
[14] = tested on: HCT-116; assay: Antiproliferative activity against p53 deficient human HCT116 cells at IC50 after 96 hrs by MTS assay in presence of 50 uM ZnCl2; assay type: functional, cell-based
[15] = Binding affinity to Cu2+ assessed as compound-metal complex formation at compound to metal ratio of 1:0, 1:1, 2:1, 3:1, 4:1 and 5:1 after 30 mins by UV-visible spectrophotometry
[16] = tested on: HCT-116; assay: Induction of apoptosis in p53 expressing human HCT116 cells assessed as late apoptotic cells at IC50 after 48 hrs by acridine orange/ethidium bromide staining-based epifluorescence microscopy; assay type: functional, cell-based
[17] = Antiproliferative activity against p53 expressing human HCT116 cells at IC50 after 96 hrs by MTS assay in presence of 20 uM CuCl2; assay type: functional, HCT-116
[18] = tested on: HCT-116; assay: Antiproliferative activity against p53 expressing human HCT116 cells at IC50 after 96 hrs by MTS assay in presence of 50 uM of ZnCl2; assay type: functional, cell-based
[19] = tested on: HCT-116; assay: Induction of intracellular reactive oxygen species generation in p53 expressing human HCT116 cells at IC50 after 6 hrs by fluorescence-based plate reader analysis; assay type: functional, cell-based

CC(=O)OC[C@H]1O[C@@H](Sc2ccc(NC(=O)c3ccc4ccc(C)nc4c3O)cn2)[C@H](OC(C)=O)[C@@H](OC(C)=O)[C@@H]1OC(C)=O
Activity [1]: inactive
Activity [2]: 41.5%
Activity [3]: 75%
Activity [4]: inactive
Activity [5]: Active
Activity [6]: Active
Activity [7]: Active
IC50 [8]: 11.5 µM
IC50 [9]: 4.88 µM
IC50 [10]: 4.42 µM
Activity [11]: Active
Activity [12]: inactive
Activity [13]: Active
Activity [14]: inactive
Activity [15]: Active
Activity [16]: Active

CC(=O)OC[C@H]1O[C@@H](N)[C@H](OC(C)=O)[C@@H](OC(C)=O)[C@@H]1OC(C)=O
IC50 [9]: > 450 µM
IC50 [10]: > 300 µM

CC(=O)OC[C@H]1O[C@@H](SC(=O)c2ccc3nc(C)ccc3c2O)[C@H](OC(C)=O)[C@@H](OC(C)=O)[C@H]1OC(C)=O
IC50 [9]: > 25 µM
IC50 [10]: > 25 µM

Cc1ccc2ccc(C(=O)O)c(O)c2n1
IC50 [9]: > 750 µM
IC50 [10]: > 750 µM

CC(=O)OC[C@H]1O[C@@H](Sc2ccc(NC(=O)c3ccc4ccc(C)nc4c3O)cc2)[C@H](OC(C)=O)[C@@H](OC(C)=O)[C@@H]1OC(C)=O
Activity [1]: inactive
Activity [2]: 10.7%
Activity [4]: inactive
Activity [5]: Active
Activity [6]: Active
IC50 [8]: 12.4 µM
IC50 [9]: 12 µM
IC50 [10]: 10.7 µM
Activity [13]: Active
Activity [15]: Active
Activity [16]: Active

CC(=O)OC[C@H]1O[C@@H](SC(=O)c2ccc3nc(C)ccc3c2O)[C@H](OC(C)=O)[C@@H](OC(C)=O)[C@@H]1OC(C)=O
IC50 [9]: > 25 µM
IC50 [10]: > 25 µM

CC(=O)OC[C@H]1O[C@@H](S)[C@H](OC(C)=O)[C@@H](OC(C)=O)[C@@H]1OC(C)=O
IC50 [9]: > 750 µM
IC50 [10]: > 500 µM

CC(=O)OC[C@H]1O[C@@H](Sc2ccc(N)cc2)[C@H](OC(C)=O)[C@@H](OC(C)=O)[C@H]1OC(C)=O
IC50 [9]: > 150 µM
IC50 [10]: > 150 µM

Cc1ccc2ccc(C(=O)N[C@@H]3O[C@H](CO)[C@@H](O)[C@H](O)[C@H]3O)c(O)c2n1
IC50 [9]: > 750 µM
IC50 [10]: > 750 µM

CC(=O)OC[C@H]1O[C@@H](Sc2ccc(N)cc2)[C@H](OC(C)=O)[C@@H](OC(C)=O)[C@@H]1OC(C)=O
IC50 [9]: > 150 µM
IC50 [10]: > 150 µM

CC(=O)OC[C@H]1O[C@@H](SC(=O)c2ccc3ccc(C)nc3c2O)[C@H](OC(C)=O)[C@@H](OC(C)=O)[C@@H]1OC(C)=O
IC50 [9]: > 25 µM
IC50 [10]: > 25 µM

CC(=O)OC[C@H]1O[C@@H](SC(=O)c2ccc3ccc(C)nc3c2O)[C@H](OC(C)=O)[C@@H](OC(C)=O)[C@H]1OC(C)=O
IC50 [9]: > 25 µM
IC50 [10]: > 25 µM

CC(=O)OC[C@H]1O[C@@H](Sc2ccc(N)cn2)[C@H](OC(C)=O)[C@@H](OC(C)=O)[C@H]1OC(C)=O
IC50 [9]: > 150 µM
IC50 [10]: > 150 µM

Cc1ccc2c(O)c(C(=O)O)ccc2n1
IC50 [9]: > 750 µM
IC50 [10]: > 750 µM

CC(=O)OC[C@H]1O[C@@H](Sc2ccc(NC(=O)c3ccc4ccc(C)nc4c3O)cn2)[C@H](OC(C)=O)[C@@H](OC(C)=O)[C@H]1OC(C)=O
Activity [1]: inactive
Activity [2]: 26.1%
Activity [4]: inactive
Activity [5]: Active
Activity [6]: Active
IC50 [8]: 9.32 µM
IC50 [9]: 7.86 µM
IC50 [10]: 7.05 µM
Activity [12]: inactive
Activity [13]: Active
Activity [15]: Active
Activity [16]: Active

CC(=O)OC[C@H]1O[C@@H](Sc2ccc(N)cn2)[C@H](OC(C)=O)[C@@H](OC(C)=O)[C@@H]1OC(C)=O
IC50 [9]: > 150 µM
IC50 [10]: > 150 µM

CC(=O)OC[C@H]1O[C@@H](Sc2ccc(NC(=O)c3ccc4nc(C)ccc4c3O)cc2)[C@H](OC(C)=O)[C@@H](OC(C)=O)[C@@H]1OC(C)=O
IC50 [9]: > 25 µM
IC50 [10]: > 25 µM

Cc1ccc2ccc(C(=O)N[C@@H]3O[C@H](COCc4ccccc4)[C@H](OCc4ccccc4)[C@H](OCc4ccccc4)[C@H]3OCc3ccccc3)c(O)c2n1
Activity [1]: Active
Activity [2]: 9%
Activity [4]: Active
Activity [5]: Active
Activity [6]: Active
Activity [7]: Active
IC50 [8]: 18.6 µM
IC50 [9]: 11.6 µM
IC50 [10]: 11.7 µM
Activity [11]: Active
Activity [12]: inactive
Activity [13]: Active
Activity [15]: Active
Activity [16]: Active

CC(=O)OC[C@H]1O[C@@H](NC(=O)c2ccc3ccc(C)nc3c2O)[C@H](OC(C)=O)[C@@H](OC(C)=O)[C@@H]1OC(C)=O
Activity [1]: Active
Activity [17]: 50%
Activity [2]: 16.2%
Activity [5]: Active
Activity [18]: inactive
Activity [6]: Active
Activity [19]: Active
IC50 [8]: 23.6 µM
IC50 [9]: 13.6 µM
IC50 [10]: 15.1 µM
Activity [11]: Active
Activity [13]: Active
Activity [15]: Active
Activity [16]: Active

CC(=O)OC[C@H]1O[C@@H](Sc2ccc(NC(=O)c3ccc4ccc(C)nc4c3O)cc2)[C@H](OC(C)=O)[C@@H](OC(C)=O)[C@H]1OC(C)=O
Activity [1]: Active
Activity [2]: 17.2%
Activity [5]: Active
Activity [6]: Active
IC50 [8]: 13.3 µM
IC50 [9]: 12.6 µM
IC50 [10]: 8.94 µM
Activity [12]: inactive
Activity [13]: Active
Activity [15]: Active
Activity [16]: Active

COc1cccc2c1C(=O)c1c(O)c3c(c(O)c1C2=O)C[C@@](O)(C(=O)CO)C[C@@H]3O[C@H]1C[C@H](N)[C@H](O)[C@H](C)O1 [DOXORUBICIN]
IC50 [8]: 3.38 µM
IC50 [9]: 0.34 µM
IC50 [10]: 0.38 µM
